From US12351559B2 (Biohaven Therapeutics Ltd., priority 2014, dated 2025) come the findings set out here.

The assay addresses T1, Kv7.2/7.3 (Homo sapiens, UniProt O43525+O43526).
T1 construct: host or cells: HEK cells, tetracycline-inducible expression
In words: Kv7.2/7.3 activation assay, QPatch planar patch-clamp, single concentration screen. Set-up: key: <1.2-fold increase over baseline (−); +/−: as a range from <1.2-fold increase over baseline (−) up to >6-fold increase over baseline (+++); as a range from <1.2-fold increase over baseline (−) up to >6-fold increase over baseline (+++); as a range from <1.2-fold increase over baseline (−) up to >6-fold increase over baseline (+++); >6-fold increase over baseline (+++). Conditions: Kv7.2/Kv7.3 co-expressing HEK cells. The format is cell-based. In general terms: The patch-clamp technique gives a direct electrical read-out from membranes.

The mark [1] stands for this setting: compound 3 μM, steady-state current at end of 2 s pulse to −30 mV.

As for `C[C@@](O)(CC(=O)Nc1nc2ccc(Cl)cc2n1C1CCC1)c1ccccc1` [Example 100, (R)-N-(6-chloro-1-cyclobutyl-1H-benzo[d]imidazol-2-yl)-3-hydroxy-3-phenylbutanamide], the “Kv7.2/7.3 Activity: increase in current over baseline” value (from here on “Kv7.2/7.3 Activity: increase”) under setting [1] is listed as “+”.

With `CC(C)(O)c1ccc2nc(NC(=O)CC(O)(C(F)(F)F)C(F)(F)F)n(-c3ccc(F)cc3)c2c1` [Example 131, 4,4,4-trifluoro-N-(1-(4-fluorophenyl)-6-(2-hydroxypropan-2-yl)-1H-benzo[d]imidazol-2-yl)-3-hydroxy-3-(trifluoromethyl)butanamide], the “Kv7.2/7.3 Activity: increase” value under setting [1] is given as “+/−”.

With `N#Cc1ccc2nc(NC(=O)C[C@@H](O)c3ccccc3)n(C3CCC3)c2c1` [Example 25, (R)-N-(6-cyano-1-cyclobutyl-1H-benzo[d]imidazol-2-yl)-3-hydroxy-3-phenylpropanamide], the “Kv7.2/7.3 Activity: increase” value under setting [1] was “+/−”.

As to `CC(C)c1ccc2nc(NC(=O)[C@@H](C)C(C)C)n(C3CCC3)c2c1` [Example 65, (S)—N-(1-cyclobutyl-6-isopropyl-1H-benzo[d]imidazol-2-yl)-2,3-dimethylbutanamide], the “Kv7.2/7.3 Activity: increase” value under setting [1] is “+”.

Turning to `C[C@](O)(CC(=O)Nc1nc2ccc(Cl)cc2n1C1CCC1)c1ccccc1` [Example 99, (S)-N-(6-chloro-1-cyclobutyl-1H-benzo[d]imidazol-2-yl)-3-hydroxy-3-phenylbutanamide], the “Kv7.2/7.3 Activity: increase” value under setting [1] was “+”.

With `Cc1cc2nc(NC(=O)C[C@](C)(O)c3ccc(F)cc3)n(C3CCC3)c2cc1C#N` [Example 125, (S)-N-(6-cyano-1-cyclobutyl-5-methyl-1H-benzo[d]imidazol-2-yl)-3-(4-fluorophenyl)-3-hydroxybutanamide], the “Kv7.2/7.3 Activity: increase” value under setting [1] was “+/−”.

Consider `CC(C)[C@H](C)C(=O)Nc1nc2ccc(C#N)cc2n1C1CCC1` [Example 6, (S)-N-(6-cyano-1-cyclobutyl-1H-benzo[d]imidazol-2-yl)-2,3-dimethylbutanamide], for which the “Kv7.2/7.3 Activity: increase” value under setting [1] is on record as “+”.

In the case of `CCOC(=O)Cc1ccc2nc(NC(=O)CC(C)(C)C)n(C3CCC3)c2c1F` [Example 110, ethyl 2-(1-cyclobutyl-2-(3,3-dimethylbutanamido)-7-fluoro-1H-benzo[d]imidazol-6-yl)acetate], the “Kv7.2/7.3 Activity: increase” value under setting [1] is “+”.

As to `CC(C)(O)CC(=O)Nc1nc2ccc(C(C)(C)O)cc2n1C1CCC1` [Example 85, N-(1-cyclobutyl-6-(2-hydroxypropan-2-yl)-1H-benzo[d]imidazol-2-yl)-3-hydroxy-3-methylbutanamide], the “Kv7.2/7.3 Activity: increase” value under setting [1] is given as “+/−”.

In the case of `Cc1cc(-n2c(NC(=O)[C@@H](C)C(C)(C)C)nc3ccc(C#N)cc32)on1` [Example 49, (S)-N-(6-cyano-1-(3-methylisoxazol-5-yl)-1H-benzo[d]imidazol-2-yl)-2,3,3-trimethylbutanamide], the “Kv7.2/7.3 Activity: increase” value under setting [1] is reported as “+”.

For the molecule `C[C@](O)(CC(=O)Nc1nc2ccc(C#N)cc2n1C1CCC1)c1ccccn1` [Example 20, (S)-N-(6-cyano-1-cyclobutyl-1H-benzo[d]imidazol-2-yl)-3-hydroxy-3-(pyridin-2-yl)butanamide], the “Kv7.2/7.3 Activity: increase” value under setting [1] is “+”.

With `C[C@](O)(CC(=O)Nc1nc2ccc(C#N)cc2n1C1CCC1)c1ccccc1` [Example 29, (S)-N-(6-cyano-1-cyclobutyl-1H-benzo[d]imidazol-2-yl)-3-hydroxy-3-phenylbutanamide], the “Kv7.2/7.3 Activity: increase” value under setting [1] is “+”.

Regarding `O=C(CC(C(F)(F)F)C(F)(F)F)Nc1nc2ccc(C(F)(F)F)cc2n1C1CCC1` [Example 39, N-(1-cyclobutyl-6-(trifluoromethyl)-1H-benzo[d]imidazol-2-yl)-4,4,4-trifluoro-3-(trifluoromethyl)butanamide], the “Kv7.2/7.3 Activity: increase” value under setting [1] is “+”.

As for `CC(O)(CC(=O)Nc1nc2ccc(C#N)cc2n1C1CCC1)C1CCC1` (stereo not shown) [Example 78, N-(6-cyano-1-cyclobutyl-1H-benzo[d]imidazol-2-yl)-3-cyclobutyl-3-hydroxybutanamide], the “Kv7.2/7.3 Activity: increase” value under setting [1] is on record as “+”.

As to `COC(=O)c1cccc2nc(NC(=O)CC(C)(C)C)n(C3CCC3)c12` [Example 67, methyl 1-cyclobutyl-2-(3,3-dimethylbutanamido)-1H-benzo[d]imidazole-7-carboxylate], the “Kv7.2/7.3 Activity: increase” value under setting [1] is reported as “+/−”.

On to `C[C@H](C(=O)Nc1nc2ccc(C#N)cc2n1C1CCC1)C(C)(C)O` [Example 13, (S)-N-(6-cyano-1-cyclobutyl-1H-benzo[d]imidazol-2-yl)-3-hydroxy-2,3-dimethylbutanamide], for which the “Kv7.2/7.3 Activity: increase” value under setting [1] is listed as “+/−”.

For `O=C(CC1(O)CCC1)Nc1nc2ccc(C(F)(F)F)cc2n1C1CCC1` [Example 44, N-(1-cyclobutyl-6-(trifluoromethyl)-1H-benzo[d]imidazol-2-yl)-2-(1-hydroxycyclobutyl)acetamide], the “Kv7.2/7.3 Activity: increase” value under setting [1] is recorded as “+”.

With `Cc1cc(-n2c(NC(=O)CC(C)(C)C)nc3ccc(C#N)cc32)on1` [Example 69, N-(6-cyano-1-(3-methylisoxazol-5-yl)-1H-benzo[d]imidazol-2-yl)-3,3-dimethylbutanamide], under setting [1], the “Kv7.2/7.3 Activity: increase” value is “+”.

Take `CC(C)(C)C(=O)Nc1nc2ccc(C(C)(C)O)cc2n1C1CCC1` [Example 90, N-(1-cyclobutyl-6-(2-hydroxypropan-2-yl)-1H-benzo[d]imidazol-2-yl)pivalamide]: the “Kv7.2/7.3 Activity: increase” value under setting [1] is given as “+/−”.

Regarding `CC1(n2c(NC(=O)C[C@@](C)(O)c3ccccc3)nc3ccc(C#N)cc32)CCC1` [Example 96, (R)-N-(6-cyano-1-(1-methylcyclobutyl)-1H-benzo[d]imidazol-2-yl)-3-hydroxy-3-phenylbutanamide], the “Kv7.2/7.3 Activity: increase” value under setting [1] was “++”.

In the case of `C[C@](O)(C(=O)Nc1nc2ccc(C(F)(F)F)cc2n1C1CCC1)C(F)(F)F` [Example 42, (S)-N-(1-cyclobutyl-6-(trifluoromethyl)-1H-benzo[d]imidazol-2-yl)-3,3,3-trifluoro-2-hydroxy-2-methylpropanamide], the “Kv7.2/7.3 Activity: increase” value under setting [1] was “+/−”.

Regarding `C[C@H](C(=O)Nc1nc2ccc(C#N)cc2n1C1CCC1)[C@@](C)(O)c1ccccc1` [Example 18, (2S,3R)-N-(6-cyano-1-cyclobutyl-1H-benzo[d]imidazol-2-yl)-3-hydroxy-2-methyl-3-phenylbutanamide], under setting [1], the “Kv7.2/7.3 Activity: increase” value is “+”.

On to `CC(C)(C)CC(=O)Nc1nc2ccc(C(C)(C)O)cc2n1-c1ccc(F)cc1` [Example 104, N-(1-(4-fluorophenyl)-6-(2-hydroxypropan-2-yl)-1H-benzo[d]imidazol-2-yl)-3,3-dimethylbutanamide], for which, under “compound @ 1 μM”, the “Kv7.2/7.3 Activity: increase” value is reported as “+(@ 1 μM)”.

Take `CC(C)(O)c1ccc2nc(NC(=O)[C@@H]3CC3(C)C)n(C3CCC3)c2c1` [Example 89, (R)-N-(1-cyclobutyl-6-(2-hydroxypropan-2-yl)-1H-benzo[d]imidazol-2-yl)-2,2-dimethylcyclopropane-1-carboxamide]: the “Kv7.2/7.3 Activity: increase” value under setting [1] is “++”.

`N#Cc1ccc2nc(NC(=O)C[C@H](O)c3ccccc3)n(C3CCC3)c2c1` [Example 26, (S)-N-(6-cyano-1-cyclobutyl-1H-benzo[d]imidazol-2-yl)-3-hydroxy-3-phenylpropanamide]: under setting [1], the “Kv7.2/7.3 Activity: increase” value is “+/−”.
